Assays:
Format in all cases: cell-based
Moraxella catarrhalis = assay: MIC against Gram-negative bacteria: Moraxella catarrhalis; details: 5×10^5 CFU/mL; for MIC against M. catarrhalis: Moraxella catarrhalis
Description: (§1) 1. Gram-negative bacteria, such as E. coli BL21, Pseudomonas aeruginosa, Klebsiella pneumonia, Enterobacter cloacae, Aeromonas hydrophila, Citrobacter diversus, Moraxella catarrhalis, Proteus mirabilis, Proteus vulgaris, Serratia marcescens, etc were streaked on solid LB medium and cultured respectively. Then, typical clones were picked, inoculated into common liquid LB medium respectively, and cultured at 37° C. with shaking at 185 rpm until the McFarland specific turbidity was 0.5. The bacterial culture of each of Gram-negative bacteria was centrifuged at 4000×g for 3 min, the supernatant was discarded, and the thalli were resuspended with fresh LB medium.
(§2) 2. The above-mentioned bacterial suspensions were diluted and inoculated into 96-well plates with the final concentration of the bacterial suspension being 5×10^5 CFU/mL per well.
(§3) 3. Each of the purified human-originated EGF domain proteins (PRT1 to PRT1498 in Table 1) was added to each of the above wells and subjected to two-fold serial dilution in concentration. Three parallel wells were set up for each concentration in the gradient.
(§4) 4. The above-mentioned 96-well plates were placed and cultured at 37° C. in shaking incubator shaking at 175 rpm. […] The minimal inhibitory concentration MIC is defined as the lowest concentration of the recombinant protein at which there is no growth of the bacteria.

Klebsiella pneumonia = assay: MIC against Gram-negative bacteria: Klebsiella pneumonia; details: 5×10^5 CFU/mL; for MIC against K. pneumonia: Klebsiella pneumonia
Description: as §1, §2, §3, §4

Proteus mirabilis = assay: MIC against Gram-negative bacteria: Proteus mirabilis; details: 5×10^5 CFU/mL; for MIC against P. mirabilis: Proteus mirabilis
Description: as §1, §2, §3, §4

Serratia marcescens = assay: MIC against Gram-negative bacteria: Serratia marcescens; details: 5×10^5 CFU/mL; for MIC against S. marcescens: Serratia marcescens
Description: as §1, §2, §3, §4

Pseudomonas aeruginosa = assay: MIC against Gram-negative bacteria: Pseudomonas aeruginosa; details: 5×10^5 CFU/mL; for MIC against P. aeruginosa: Pseudomonas aeruginosa
Description: as §1, §2, §3, §4

Citrobacter diversus = assay: MIC against Gram-negative bacteria: Citrobacter diversus; details: 5×10^5 CFU/mL; for MIC against C. diversus: Citrobacter diversus
Description: as §1, §2, §3, §4

E. coli BL21 = assay: MIC against Gram-negative bacteria: E. coli BL21; details: 5×10^5 CFU/mL
Description: as §1, §2, §3, §4

Enterobacter cloacae = assay: MIC against Gram-negative bacteria: Enterobacter cloacae; details: 5×10^5 CFU/mL; for MIC against E. cloacae: Enterobacter cloacae
Description: as §1, §2, §3, §4

E. coli DH5α = assay: Antibacterial activity: MIC and growth curve against E. coli DH5α in 96-well plate; details: minimal inhibitory concentration against E. coli DH5α; 96-well plate, 5×10^5 CFU/mL, 37° C., judged after 8 h
Description: 1. E. coli DH5α was exemplified. E. coli DH5α was streaked and cultured on LB solid medium. Then, a typical clone was picked and inoculated into common LB liquid medium, cultured at 37° C. with shaking at 185 rpm until the logarithmic growth phase was reached (OD600 of about 0.5). The bacterial culture was centrifuged at 4000×g for 3 min, the supernatant was discarded, and the thalli were resuspended with fresh LB medium.
2. The above-mentioned bacterial suspension was diluted and inoculated into a 96-well plate with the total volume of 100 μL per well and a bacterial count of 5×10^5 CFU/mL.
3. The recombinant protein hF VII-EGF1 was added to the above-mentioned wells with the final protein concentration in the well of the highest protein concentration being 50 μg/mL. Basing on this final concentration, a two-fold serial dilution was performed till a protein concentration gradient consisting of 50, 25, and 12.5 μg/mL was set up. Three parallel wells were set up for each concentration in the gradient.
4. The above-mentioned 96-well plate was placed and cultured at 37° C. in shaking incubator shaking at 175 rpm. Samples were taken every 30 min, the absorbance values were determined at 600 nm wavelength under a ultra violet spectrophotometer, and an inhibition curve was plotted. […] The minimal inhibitory concentration MIC is defined as the lowest concentration of the recombinant protein at which there is no growth of the bacteria.
According to the experimental procedures in Example 14, the minimal inhibitory concentrations (MIC, μg/mL) of the other human-originated EGF domain proteins (PRT2 to PRT1498 in Table 1) for E. coli DH5α were determined.

Proteus vulgaris = assay: MIC against Gram-negative bacteria: Proteus vulgaris; details: 5×10^5 CFU/mL; for MIC against P. vulgaris: Proteus vulgaris
Description: as §1, §2, §3, §4

Aeromonas hydrophila = assay: MIC against Gram-negative bacteria: Aeromonas hydrophila; details: 5×10^5 CFU/mL; for MIC against A. hydrophila: Aeromonas hydrophila
Description: as §1, §2, §3, §4

[1] = E. coli BL21, 10 h cultivation at 37° C.
[2] = E. coli BL21, 96-well plate, 37° C., 10 h
[3] = 10 h cultivation at 37° C., two-fold serial dilution

PRT1346 (EVNECQSNPCLNNAVCEDQVGGFLCKCPPGFLGTRCG; listed as Homo sapiens)
MIC against M. catarrhalis (Moraxella catarrhalis; 10 h cultivation at 37° C.): 12.5 µg/mL
MIC against K. pneumonia (Klebsiella pneumonia; 10 h cultivation at 37° C.): 25 µg/mL
MIC against P. mirabilis (Proteus mirabilis; 10 h cultivation at 37° C.): 25 µg/mL
MIC against S. marcescens (Serratia marcescens; 10 h cultivation at 37° C.): 25 µg/mL
MIC against P. aeruginosa (Pseudomonas aeruginosa; 10 h cultivation at 37° C.): 50 µg/mL
MIC against C. diversus (Citrobacter diversus; 10 h cultivation at 37° C.): 25 µg/mL
MIC against E. coli BL21 (E. coli BL21; [1]): 25 µg/mL
MIC against E. cloacae (Enterobacter cloacae; 10 h cultivation at 37° C.): 12.5 µg/mL
MIC (E. coli DH5α): 12.5 µg/mL
MIC against P. vulgaris (Proteus vulgaris; 10 h cultivation at 37° C.): 50 µg/mL
MIC against A. hydrophila (Aeromonas hydrophila; 10 h cultivation at 37° C.): 50 µg/mL

PRT1231 (IGPSCLKFCSGRGQCTRHGCKCDPGFSGPACE; listed as Homo sapiens)
MIC against M. catarrhalis (Moraxella catarrhalis; 96-well plate, 37° C., 10 h): 12.5 µg/mL
MIC against K. pneumonia (Klebsiella pneumonia; 96-well plate, 37° C., 10 h): 12.5 µg/mL
MIC against P. mirabilis (Proteus mirabilis; 96-well plate, 37° C., 10 h): 50 µg/mL
MIC against S. marcescens (Serratia marcescens; 96-well plate, 37° C., 10 h): 25 µg/mL
MIC against P. aeruginosa (Pseudomonas aeruginosa; 96-well plate, 37° C., 10 h): 50 µg/mL
MIC against C. diversus (Citrobacter diversus; 96-well plate, 37° C., 10 h): 50 µg/mL
MIC against E. coli BL21 (E. coli BL21; [2]): 25 µg/mL
MIC against E. cloacae (Enterobacter cloacae; 96-well plate, 37° C., 10 h): 50 µg/mL
MIC (E. coli DH5α): 12.5 µg/mL
MIC against P. vulgaris (Proteus vulgaris; 96-well plate, 37° C., 10 h): 12.5 µg/mL
MIC against A. hydrophila (Aeromonas hydrophila; 96-well plate, 37° C., 10 h): 100 µg/mL

PRT658 (DVNECELMLAVCGAALCENVEGSFLCLCASDLEEYDAQEGHCR; listed as Homo sapiens)
MIC M. catarrhalis (Moraxella catarrhalis; 96-well plate, 37° C., 10 h): 12.5 µg/mL
MIC K. pneumonia (Klebsiella pneumonia; 96-well plate, 37° C., 10 h): 25 µg/mL
MIC P. mirabilis (Proteus mirabilis; 96-well plate, 37° C., 10 h): 25 µg/mL
MIC S. marcescens (Serratia marcescens; 96-well plate, 37° C., 10 h): 12.5 µg/mL
MIC P. aeruginosa (Pseudomonas aeruginosa; 96-well plate, 37° C., 10 h): 50 µg/mL
MIC C. diversus (Citrobacter diversus; 96-well plate, 37° C., 10 h): 50 µg/mL
MIC E. coli BL21 (E. coli BL21; 96-well plate, 37° C., 10 h): 25 µg/mL
MIC E. cloacae (Enterobacter cloacae; 96-well plate, 37° C., 10 h): 12.5 µg/mL
MIC (E. coli DH5α): 12.5 µg/mL
MIC P. vulgaris (Proteus vulgaris; 96-well plate, 37° C., 10 h): 50 µg/mL
MIC A. hydrophila (Aeromonas hydrophila; 96-well plate, 37° C., 10 h): 25 µg/mL

PRT1406 (EADCIDPGCSNHGVCIHGECHCSPGWGGSNCE; listed as Homo sapiens)
MIC against M. catarrhalis (Moraxella catarrhalis; 10 h cultivation at 37° C.): 50 µg/mL
MIC against K. pneumonia (Klebsiella pneumonia; 10 h cultivation at 37° C.): 12.5 µg/mL
MIC against P. mirabilis (Proteus mirabilis; 10 h cultivation at 37° C.): 12.5 µg/mL
MIC against S. marcescens (Serratia marcescens; 10 h cultivation at 37° C.): 50 µg/mL
MIC against P. aeruginosa (Pseudomonas aeruginosa; 10 h cultivation at 37° C.): 25 µg/mL
MIC against C. diversus (Citrobacter diversus; 10 h cultivation at 37° C.): 12.5 µg/mL
MIC against E. coli BL21 (E. coli BL21; [1]): 50 µg/mL
MIC against E. cloacae (Enterobacter cloacae; 10 h cultivation at 37° C.): 25 µg/mL
MIC (E. coli DH5α): 25 µg/mL
MIC against P. vulgaris (Proteus vulgaris; 10 h cultivation at 37° C.): 50 µg/mL
MIC against A. hydrophila (Aeromonas hydrophila; 10 h cultivation at 37° C.): 50 µg/mL

PRT664 (DINECLTLGLCKDAECVNTRGSYLCTCRPGLMLDPSRSRCV; listed as Homo sapiens)
MIC M. catarrhalis (Moraxella catarrhalis; 96-well plate, 37° C., 10 h): 25 µg/mL
MIC K. pneumonia (Klebsiella pneumonia; 96-well plate, 37° C., 10 h): 12.5 µg/mL
MIC P. mirabilis (Proteus mirabilis; 96-well plate, 37° C., 10 h): 50 µg/mL
MIC S. marcescens (Serratia marcescens; 96-well plate, 37° C., 10 h): 25 µg/mL
MIC P. aeruginosa (Pseudomonas aeruginosa; 96-well plate, 37° C., 10 h): 25 µg/mL
MIC C. diversus (Citrobacter diversus; 96-well plate, 37° C., 10 h): 12.5 µg/mL
MIC E. coli BL21 (E. coli BL21; 96-well plate, 37° C., 10 h): 50 µg/mL
MIC E. cloacae (Enterobacter cloacae; 96-well plate, 37° C., 10 h): 25 µg/mL
MIC (E. coli DH5α): 25 µg/mL
MIC P. vulgaris (Proteus vulgaris; 96-well plate, 37° C., 10 h): 12.5 µg/mL
MIC A. hydrophila (Aeromonas hydrophila; 96-well plate, 37° C., 10 h): 50 µg/mL

PRT837 (RFSLCPGGCQSHGQCQPPGVCACEPGWGGPD; listed as Homo sapiens)
MIC (μg/mL) M. catarrhalis (Moraxella catarrhalis; M. catarrhalis, 10 h cultivation at 37° C.): 25 µg/mL
MIC (μg/mL) K. pneumonia (Klebsiella pneumonia; K. pneumonia, 10 h cultivation at 37° C.): 25 µg/mL
MIC (μg/mL) P. mirabilis (Proteus mirabilis; P. mirabilis, 10 h cultivation at 37° C.): 12.5 µg/mL
MIC (μg/mL) S. marcescens (Serratia marcescens; S. marcescens, 10 h cultivation at 37° C.): 12.5 µg/mL
MIC (μg/mL) P. aeruginosa (Pseudomonas aeruginosa; P. aeruginosa, 10 h cultivation at 37° C.): 25 µg/mL
MIC (μg/mL) C. diversus (Citrobacter diversus; C. diversus, 10 h cultivation at 37° C.): 12.5 µg/mL
MIC (μg/mL) E. coli BL21 (E. coli BL21; [1]): 12.5 µg/mL
MIC (μg/mL) E. cloacae (Enterobacter cloacae; E. cloacae, 10 h cultivation at 37° C.): 12.5 µg/mL
MIC (E. coli DH5α): 25 µg/mL
MIC (μg/mL) P. vulgaris (Proteus vulgaris; P. vulgaris, 10 h cultivation at 37° C.): 12.5 µg/mL
MIC (μg/mL) A. hydrophila (Aeromonas hydrophila; A. hydrophila, 10 h cultivation at 37° C.): 25 µg/mL

PRT1296 (GCEPCHKKVCAHGTCQPSSQAGFTCECQEGWMGPLCD; listed as Homo sapiens)
MIC against M. catarrhalis (Moraxella catarrhalis; 96-well plate, 37° C., 10 h): 12.5 µg/mL
MIC against K. pneumonia (Klebsiella pneumonia; 96-well plate, 37° C., 10 h): 50 µg/mL
MIC against P. mirabilis (Proteus mirabilis; 96-well plate, 37° C., 10 h): 25 µg/mL
MIC against S. marcescens (Serratia marcescens; 96-well plate, 37° C., 10 h): 25 µg/mL
MIC against P. aeruginosa (Pseudomonas aeruginosa; 96-well plate, 37° C., 10 h): 25 µg/mL
MIC against C. diversus (Citrobacter diversus; 96-well plate, 37° C., 10 h): 50 µg/mL
MIC against E. coli BL21 (E. coli BL21; [2]): 12.5 µg/mL
MIC against E. cloacae (Enterobacter cloacae; 96-well plate, 37° C., 10 h): 25 µg/mL
MIC (E. coli DH5α): 50 µg/mL
MIC against P. vulgaris (Proteus vulgaris; 96-well plate, 37° C., 10 h): 50 µg/mL
MIC against A. hydrophila (Aeromonas hydrophila; 96-well plate, 37° C., 10 h): 100 µg/mL

PRT1089 (ANPCCSHPCQNRGVCMSVGFDQYKCDCTRTGFYGENCS; listed as Homo sapiens)
MIC M. catarrhalis (Moraxella catarrhalis; [3]): 12.5 µg/mL
MIC K. pneumonia (Klebsiella pneumonia; [3]): 25 µg/mL
MIC P. mirabilis (Proteus mirabilis; [3]): 25 µg/mL
MIC S. marcescens (Serratia marcescens; [3]): 25 µg/mL
MIC P. aeruginosa (Pseudomonas aeruginosa; [3]): 50 µg/mL
MIC C. diversus (Citrobacter diversus; [3]): 25 µg/mL
MIC E. coli BL21 (E. coli BL21; [3]): 25 µg/mL
MIC E. cloacae (Enterobacter cloacae; [3]): 12.5 µg/mL
MIC (E. coli DH5α): 50 µg/mL
MIC P. vulgaris (Proteus vulgaris; [3]): 50 µg/mL
MIC A. hydrophila (Aeromonas hydrophila; [3]): 50 µg/mL
